Values joined by “and” are separate entries in the source; they are usually repeats but may differ in a detail not shown here. Identical values can stand only once. Toxic doses and inconclusive results are not listed.
Test system: L1210 leukemia ip in BDF1 mice, survival T/C
Test: NCI In Vivo Anticancer Drug Screen. Data for tumor model L1210 Leukemia (intraperitoneal) in B6D2F1 (BDF1) mice
Conditions: endpoint: mean survival time, higher = longer survival
In short: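 Read-out is survival time, reported as the treated-group measurement over the vehicle-control measurement.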

[1] = dose: 25.0 mg/kg/injection, schedule: Q01DX009 (ip), vehicle: saline
[2] = dose: 50.0 mg/kg/injection, schedule: Q01DX009 (ip), vehicle: saline
[3] = dose: 100.0 mg/kg/injection, schedule: Q01DX001 (ip), vehicle: saline
[4] = dose: 100.0 mg/kg/injection, schedule: Q04DX003 (ip), vehicle: Klucel (hydroxypropylcellulose) (HPC)
[5] = dose: 200.0 mg/kg/injection, schedule: Q01DX001 (ip), vehicle: saline
[6] = dose: 200.0 mg/kg/injection, schedule: Q04DX003 (ip), vehicle: Klucel (hydroxypropylcellulose) (HPC)
[7] = dose: 400.0 mg/kg/injection, schedule: Q01DX001 (ip), vehicle: saline
[8] = dose: 400.0 mg/kg/injection, schedule: Q04DX003 (ip), vehicle: Klucel (hydroxypropylcellulose) (HPC)
[9] = dose: 100.0 mg/kg/injection, schedule: Q01DX009 (ip), vehicle: saline with Tween-80
[10] = dose: 200.0 mg/kg/injection, schedule: Q01DX009 (ip), vehicle: saline with Tween-80
[11] = dose: 400.0 mg/kg/injection, schedule: Q01DX009 (ip), vehicle: saline with Tween-80
[12] = dose: 100.0 mg/kg/injection, schedule: Q01DX009 (ip), vehicle: saline
[13] = dose: 200.0 mg/kg/injection, schedule: Q01DX009 (ip), vehicle: saline
[14] = dose: 400.0 mg/kg/injection, schedule: Q01DX009 (ip), vehicle: saline
[15] = dose: 100.0 mg/kg/injection, schedule: Q04DX003 (ip), vehicle: saline
[16] = dose: 200.0 mg/kg/injection, schedule: Q04DX003 (ip), vehicle: saline
[17] = dose: 100.0 mg/kg/injection, schedule: Q04DX002 (ip), vehicle: saline with Tween-80
[18] = dose: 200.0 mg/kg/injection, schedule: Q04DX002 (ip), vehicle: saline with Tween-80
[19] = dose: 400.0 mg/kg/injection, schedule: Q04DX002 (ip), vehicle: saline with Tween-80
[20] = dose: 100.0 mg/kg/injection, schedule: Q04DX002 (ip), vehicle: Klucel (hydroxypropylcellulose) (HPC)
[21] = dose: 200.0 mg/kg/injection, schedule: Q04DX002 (ip), vehicle: Klucel (hydroxypropylcellulose) (HPC)
[22] = dose: 400.0 mg/kg/injection, schedule: Q04DX002 (ip), vehicle: Klucel (hydroxypropylcellulose) (HPC)
[23] = dose: 100.0 mg/kg/injection, schedule: Q04DX003 (ip), vehicle: saline with Tween-80
[24] = dose: 100.0 mg/kg/injection, schedule: Q01DX001 (ip), vehicle: Klucel (hydroxypropylcellulose) (HPC)
[25] = dose: 100.0 mg/kg/injection, schedule: Q01DX009 (ip), vehicle: Klucel (hydroxypropylcellulose) (HPC)
[26] = dose: 200.0 mg/kg/injection, schedule: Q04DX003 (ip), vehicle: saline with Tween-80
[27] = dose: 400.0 mg/kg/injection, schedule: Q04DX003 (ip), vehicle: saline with Tween-80

C=C(C)CN1C(=O)c2ccccc2C1=O
T/C (dose: 25.0 mg/kg/injection, schedule: Q01DX009 (ip), vehicle: gum acacia): 94 % of control
T/C (dose: 50.0 mg/kg/injection, schedule: Q01DX009 (ip), vehicle: gum acacia): 96 % of control
T/C (dose: 100.0 mg/kg/injection, schedule: Q01DX009 (ip), vehicle: gum acacia): 88 % of control
T/C (dose: 100.0 mg/kg/injection, schedule: Q04DX003 (ip), vehicle: gum acacia): 108 % of control
T/C (dose: 200.0 mg/kg/injection, schedule: Q04DX003 (ip), vehicle: gum acacia): 97 % of control
T/C (dose: 400.0 mg/kg/injection, schedule: Q04DX003 (ip), vehicle: gum acacia): 93 % of control

Cc1ccc(NC(=O)CBr)cc1
T/C (dose: 50.0 mg/kg/injection, schedule: Q01DX001 (ip), vehicle: other): 96 % of control

Cc1nsc(N)n1
T/C (dose: 12.5 mg/kg/injection, schedule: Q01DX009 (ip), vehicle: saline): 108 % of control
T/C [1]: 105 % of control
T/C [2]: 100 % of control
T/C [3]: 92 % of control
T/C [4]: 102 % of control
T/C [5]: 100 % of control
T/C [6]: 113 % of control
T/C [7]: 101 % of control
T/C [8]: 104 % of control

O=CNc1ccc(O)cc1
T/C [9]: 104 % of control
T/C [10]: 108 % of control
T/C [11]: 114 % of control

OC(c1ccccc1)(c1ccccc1)C1CCCCC1C(O)(c1ccccc1)c1ccccc1 (centres undefined)
T/C [12]: 93 % of control
T/C [13]: 93 % of control
T/C [14]: 89 % of control

CCCCN1CCCC(O)C1 (centres undefined)
T/C [15]: 97 % of control
T/C [16]: 104 % of control

Cc1cccc(NC(=S)/C(=C(/[O-])c2ccccc2)[n+]2ccc3ccccc3c2)c1
T/C [17]: 98 % of control
T/C [18]: 98 % of control
T/C [19]: 91 % of control

NC(CSCCc1ccc([N+](=O)[O-])cc1)C(=O)O (centres undefined)
T/C [4]: 105 % of control
T/C [6]: 96 % of control
T/C [8]: 93 % of control

CCc1nc2ccc(N=Cc3ccc(N(CCCl)CCCl)cc3C)cc2[nH]1
T/C [4]: 101 % of control
T/C [6]: 98 % of control
T/C [8]: 101 % of control

OC(CSc1ccccc1)(c1ccccc1)c1ccccc1
T/C (dose: 56.3 mg/kg/injection, schedule: Q03DX002 (ip), vehicle: saline with Tween-80): 121 % of control
T/C (dose: 112.0 mg/kg/injection, schedule: Q03DX002 (ip), vehicle: saline with Tween-80): 102 % of control

c1ccc(CC(c2ccccc2)(c2ccccc2)c2ccccc2)cc1
T/C (dose: 25.6 mg/kg/injection, schedule: Q04DX002 (ip), vehicle: saline with Tween-80): 89 % of control
T/C (dose: 64.0 mg/kg/injection, schedule: Q04DX002 (ip), vehicle: saline with Tween-80): 93 % of control
T/C (dose: 160.0 mg/kg/injection, schedule: Q04DX002 (ip), vehicle: saline with Tween-80): 93 % of control
T/C [19]: 112 % of control

CCN(CCC#N)C(=S)Nc1ccc(C)c(C)c1
T/C [17]: 89 % of control
T/C [18]: 108 % of control
T/C [19]: 86 % of control

c1ccc2c(-c3c4ccccc4cc4ccccc34)c3ccccc3cc2c1
T/C [20]: 91 % of control
T/C [21]: 105 % of control
T/C [22]: 91 % of control

C=C(C)CN=C=S
T/C (dose: 25.0 mg/kg/injection, schedule: Q01DX009 (ip), vehicle: saline with Tween-80): 100 % of control
T/C (dose: 25.0 mg/kg/injection, schedule: Q04DX003 (ip), vehicle: saline with Tween-80): 101 % of control
T/C (dose: 50.0 mg/kg/injection, schedule: Q01DX009 (ip), vehicle: saline with Tween-80): 98 % of control
T/C (dose: 50.0 mg/kg/injection, schedule: Q04DX003 (ip), vehicle: saline with Tween-80): 109 % of control
T/C [9]: 104 % of control
T/C [23]: 103 % of control

O=C(c1ccccc1)C1C(c2ccccc2)N1Cc1ccccc1 (centres undefined)
T/C (dose: 50.0 mg/kg/injection, schedule: Q04DX003 (ip), vehicle: Klucel (hydroxypropylcellulose) (HPC)): 102 % of control
T/C [24]: 87 % of control
T/C [25]: 100 % of control
T/C [4]: 98 % of control
T/C (dose: 200.0 mg/kg/injection, schedule: Q01DX001 (ip), vehicle: Klucel (hydroxypropylcellulose) (HPC)): 88 % of control
T/C [6]: 98 % of control
T/C (dose: 400.0 mg/kg/injection, schedule: Q01DX001 (ip), vehicle: Klucel (hydroxypropylcellulose) (HPC)): 95 % of control

CCOC(=O)c1ccc(OC(=O)Nc2ccccc2)cc1
T/C [9]: 98 % of control
T/C [23]: 98 % of control
T/C [10]: 96 % of control
T/C [26]: 95 % of control
T/C [11]: 90 % of control
T/C [27]: 91 % of control

COc1ccc(C(Br)C(Br)C(=O)c2ccc3c(c2)OCO3)cc1OC (centres undefined)
T/C [15]: 92 % of control
T/C [16]: 89 % of control
T/C (dose: 400.0 mg/kg/injection, schedule: Q04DX003 (ip), vehicle: saline): 98 % of control

NC(CCSC(c1ccccc1)(c1ccccc1)c1ccccc1)C(=O)O (centres undefined)
T/C [2]: 94 % of control and 103 % of control
T/C [12]: 95 % of control and 107 % of control
T/C [13]: 97 % of control and 106 % of control
T/C [14]: 100 % of control and 108 % of control

COC(=O)c1ccccc1NC(c1ccccn1)c1ccc2cccnc2c1O (centres undefined)
T/C (dose: 125.0 mg/kg/injection, schedule: Q01DX Z (ip), vehicle: carboxymethylcellulose (CMC)): 108 % of control
T/C (dose: 250.0 mg/kg/injection, schedule: Q01DX Z (ip), vehicle: carboxymethylcellulose (CMC)): 102 % of control
T/C (dose: 500.0 mg/kg/injection, schedule: Q01DX Z (ip), vehicle: carboxymethylcellulose (CMC)): 101 % of control

COC(OC)c1nc(N)nc(N)c1-c1ccc(F)cc1
T/C [23]: 94 % of control
T/C [26]: 96 % of control
T/C [27]: 96 % of control

COc1ccc(OC)c(NC(=S)NC(=O)c2cccc([N+](=O)[O-])c2)c1
T/C [25]: 106 % of control
T/C [4]: 120 % of control
T/C (dose: 200.0 mg/kg/injection, schedule: Q01DX009 (ip), vehicle: Klucel (hydroxypropylcellulose) (HPC)): 106 % of control
T/C [6]: 100 % of control
T/C (dose: 400.0 mg/kg/injection, schedule: Q01DX009 (ip), vehicle: Klucel (hydroxypropylcellulose) (HPC)): 94 % of control
T/C [8]: 97 % of control

C=CCc1cc(OC)c(OCc2ccccc2)cc1[N+](=O)[O-]
T/C [17]: 101 % of control
T/C [18]: 87 % of control
T/C [19]: 90 % of control

COC(=O)C1CCC(NC(=O)N(CCCl)N=O)CC1 (centres undefined)
T/C (dose: 13.0 mg/kg/injection, schedule: Q01DX001 (ip), vehicle: Klucel (hydroxypropylcellulose) (HPC)): 212 % of control and 188 % of control
T/C (dose: 20.0 mg/kg/injection, schedule: Q01DX001 (ip), vehicle: Klucel (hydroxypropylcellulose) (HPC)): 270 % of control and 283 % of control
T/C (dose: 30.0 mg/kg/injection, schedule: Q01DX001 (ip), vehicle: Klucel (hydroxypropylcellulose) (HPC)): 283 % of control
T/C (dose: 44.0 mg/kg/injection, schedule: Q01DX001 (ip), vehicle: Klucel (hydroxypropylcellulose) (HPC)): 248 % of control and 282 % of control
T/C (dose: 67.0 mg/kg/injection, schedule: Q01DX001 (ip), vehicle: Klucel (hydroxypropylcellulose) (HPC)): 266 % of control
T/C [24]: 104 % of control

COc1c(C)c2c(c(O)c1C/C=C(\C)CCC(=O)O)C(=O)OC2
T/C (dose: 12.5 mg/kg/injection, schedule: Q01DX001 (ip), vehicle: saline): 96 % of control
T/C (dose: 25.0 mg/kg/injection, schedule: Q01DX001 (ip), vehicle: saline): 100 % of control
T/C [1]: 102 % of control
T/C (dose: 50.0 mg/kg/injection, schedule: Q01DX001 (ip), vehicle: saline): 103 % of control
T/C [2]: 98 % of control
T/C [3]: 100 % of control
T/C [12]: 107 % of control
T/C [20]: 104 % of control
T/C [5]: 100 % of control
T/C [13]: 118 % of control
T/C [21]: 112 % of control
T/C [7]: 100 % of control
T/C [14]: 124 % of control
T/C [22]: 112 % of control

CSc1nc(Cl)nc(SC)n1
T/C [4]: 96 % of control
T/C [6]: 96 % of control
T/C [8]: 96 % of control

Reference: PubChem BioAssay AID248 (DTP/NCI, 2004)
